Results taken from PubChem BioAssay (NCI).
Several values for one entry are separate records, joined by “and”; a condition that tells them apart may be missing. Identical values can stand only once.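 A five-concentration, 48-hour dose response in 96-well plates underlies each endpoint, interpolated linearly between surrounding concentrations. Abbreviation: GI50, concentration required for 50% inhibition of growth. TGI is the concentration that stops growth completely.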

How the values were obtained:
Experiment in all cases: NCI tumour cell line growth inhibition, 48 h
M19-MEL melanoma = tested on: M19-MEL melanoma
MDA-N = tested on: MDA-N
DMS 114 small cell lung = tested on: DMS 114 small cell lung
LXFL 529 NSCLC = tested on: LXFL 529 NSCLC
DLD-1 colon = tested on: DLD-1 colon
XF 498 CNS = tested on: XF 498 CNS
KM20L2 colon = tested on: KM20L2 colon
DMS 273 small cell lung = tested on: DMS 273 small cell lung
P388/ADR leukemia = tested on: P388/ADR leukemia
RXF-631 renal = tested on: RXF-631 renal

Row | SMILES | TGI (M19-MEL melanoma) | TGI (MDA-N) | TGI (DMS 114 small cell lung) | TGI (LXFL 529 NSCLC) [µM] | TGI (DLD-1 colon) | TGI (XF 498 CNS) [µM] | TGI (KM20L2 colon) | TGI (DMS 273 small cell lung) [µM] | TGI (RXF-631 renal) [µM] | other results
1 | CCNCC(=O)O[C@]1(CC)C(=O)OCc2c1cc1n(c2=O)Cc2cc3ccccc3nc2-1 | 5.44 µM | 6.95 µM | 2.53 µM | 42.6 | > 100 µM | 1.56 | > 100 µM | 0.328 | – | –
2 | CC[C@H]1CN2CCc3cc(OC)c(OC)cc3[C@@H]2C[C@@H]1C[C@H]1NCCc2cc(O)c(OC)cc21 | 0.0492 µM and 0.0178 µM and 0.0876 µM | 0.0354 µM and 0.141 µM | 0.0247 µM and 0.0373 µM | – | 0.0454 µM and 0.356 µM | 0.0388 | 0.0302 µM and 0.136 µM | – | – | GI50 (MDA-N): 0.0127 µM; GI50 (LXFL 529 NSCLC): 0.0118 µM; GI50 (XF 498 CNS): 0.025 µM; GI50 (P388/ADR leukemia): 0.0609 µM; TGI (P388/ADR leukemia): 29.6 µM
3 | CCn1cc(/C=C/C(C)c2cn(CC)c(=O)[nH]c2=O)c(=O)[nH]c1=O (stereo not drawn) | > 100 µM | – | > 100 µM | > 100 | > 100 µM | – | > 100 µM | > 100 | > 100 | –
4 | CCCCCC(O)C1C(=O)OC(C)C(O)/C=C/C=C/C=C/C=C\C=C(\C)C(O)CC(O)CC(O)CC(O)CC(O)CC(O)CC1O (stereo not drawn) | – | > 100 µM | – | – | – | – | – | – | – | GI50 (MDA-N): > 100 µM
5 | CC1=CC(=O)CCC2(C)C1CC[C@@H]2OC=O (stereo partly drawn) | > 100 µM | – | > 100 µM | > 100 | > 100 µM | > 100 | > 100 µM | > 100 | > 100 | –
6 | CCSCC(N)C(=O)O (stereo not drawn) | – | > 100 µM | – | – | – | – | – | – | – | –
7 | COc1ccc(/C(=N/NC(=O)NN)C(c2ccc(OC)cc2)C2(O)CNc3c(Cl)cc(Cl)cc32)cc1 (stereo not drawn) | > 100 µM | – | > 100 µM | > 100 | > 100 µM | – | > 100 µM | – | > 100 | –
8 | C=C/C=C(\NC(=O)C(Cl)(Cl)Cl)[Si](C)(C)C | > 100 µM | – | > 100 µM | > 100 | > 100 µM | > 100 | > 100 µM | > 100 | – | –
9 | COC1(OC)CC2C=C(S(=O)(=O)c3ccccc3)C1N(Cc1ccccc1)C2=O (stereo not drawn) | > 100 µM | – | 48.3 µM | 44.9 | 96.2 µM | 48.1 | 97.6 µM | – | 88.2 | –
10 | CC(=O)C1CC=C(C)CC1 (stereo not drawn) | > 100 µM | – | > 100 µM | > 100 | > 100 µM | > 100 | > 100 µM | > 100 | > 100 | –
11 | COC1=CC(O)(CC(N)=O)c2ccccc2C1=O (stereo not drawn) | > 100 µM | – | > 100 µM | > 100 | > 100 µM | > 100 | > 100 µM | > 100 | > 100 | –
12 | O=P(O)(O)c1ccccc1 (tested in a mixture with another compound) | – | > 100 µM | – | – | – | – | – | – | – | –
13 | CC1C[C@H](OC(N)=O)C(C)CC1=O (stereo partly drawn) | > 100 µM | – | > 100 µM | > 100 | > 100 µM | > 100 | > 100 µM | > 100 | – | –
14 | CCC[CH2][Sn]([CH2]CCC)([O]C(=O)c1cc(F)cc(F)c1)[O]C(=O)c1cc(F)cc(F)c1 | 1.74 µM | – | 1.22 µM | 0.607 | 2 µM | 3.28 | 3.44 µM | 2.5 | – | GI50 (M19-MEL melanoma): 0.514 µM; GI50 (DMS 114 small cell lung): 0.307 µM; GI50 (LXFL 529 NSCLC): 0.171 µM; GI50 (DLD-1 colon): 0.727 µM; GI50 (XF 498 CNS): 1.87 µM; GI50 (KM20L2 colon): 1.61 µM; GI50 (DMS 273 small cell lung): 1.25 µM
15 | C/C(=N\NC(=O)c1ccncc1)c1ccc2ccccc2c1O | – | > 100 µM | – | – | – | – | – | – | – | –
16 | NC(=O)C1=NNc2ccccc2C(=O)N1c1ccccc1 | – | > 100 µM | – | – | – | – | – | – | – | –
17 | O=C1C(Br)=CC2(C=C1Br)CCN=c1c2c(O)c2nc3ccccc3c3ccnc1c23 | – | 2.22 µM | – | – | – | – | – | – | – | GI50 (MDA-N): 0.951 µM
18 | O=C(O)C1C(C(=O)Nc2ccc3c(c2)Cc2ccccc2-3)C2(Cl)C(Cl)=C(Cl)C1(Cl)C2(Cl)Cl (stereo not drawn) | – | > 100 µM | – | – | – | – | – | – | – | –
19 | CCn1c2c(n(CC)c1=S)-c1c(n(CC)c(=S)n1CC)SSSS2 | 22.1 µM | – | 38.1 µM | 5.97 | 5.73 µM | 4.08 | 29.5 µM | 33.1 | 24.4 | –
20 | Cc1cc(N(CCC#N)S(C)(=O)=O)ccc1C=O | – | – | > 100 µM | > 100 | > 100 µM | – | > 100 µM | > 100 | – | –
21 | NC(N)=NS(=O)(=O)c1ccc(NCc2c3ccccc3nc3ccccc23)cc1 | > 100 µM | > 100 µM | 16 µM | 44.3 | > 77 µM | – | > 100 µM | > 61.6 | > 70.1 | –
22 | Brc1ccc(-c2nnc(-c3nn(-c4ccccc4)c4nc5ccccc5nc34)o2)cc1 | – | – | > 100 µM | > 100 | > 100 µM | – | > 100 µM | > 100 | > 100 | –
23 | N#CC(C(=O)/C(=N\Nc1nc(=S)[nH]n1N)C(C#N)c1ccc(Cl)cc1)c1ccc(Cl)cc1 (stereo not drawn) | > 100 µM | – | > 100 µM | > 100 | > 100 µM | > 100 | > 100 µM | > 100 | – | –

Row | SMILES | TGI (M19-MEL melanoma) | TGI (MDA-N) | TGI (DMS 114 small cell lung) | TGI (LXFL 529 NSCLC) [µM] | TGI (DLD-1 colon) | TGI (XF 498 CNS) [µM] | TGI (KM20L2 colon) | TGI (DMS 273 small cell lung) [µM] | TGI (RXF-631 renal) [µM] | other results
24 | C1CCN(CCC2CCCCN2)CC1 (stereo not drawn) | – | > 100 µM | – | – | – | – | – | – | – | –
25 | O=C(CO)CC(=O)C(=O)Nc1nc([N+](=O)[O-])cs1 | > 100 µM | – | > 100 µM | > 100 | > 100 µM | – | > 100 µM | > 100 | > 100 | –
26 | O=S(O)CCCCCSSCCCCSSCCCCCS(=O)O | > 100 µM | – | > 100 µM | > 100 | > 100 µM | > 100 | > 100 µM | > 100 | > 100 | –
27 | NS(=O)(=O)c1cc2c(cc1Cl)NC(Cc1ccccc1)NS2(=O)=O (stereo not drawn) | – | > 100 µM | – | – | – | – | – | – | – | –
28 | CCOC(=O)N1CCc2cc(OC)c(OC)c3c2C1CC3=O (stereo not drawn) | > 100 µM | – | > 100 µM | > 100 | > 100 µM | – | > 100 µM | > 100 | – | –
29 | CCOC(=O)C(=O)Nc1ccc(C)cc1C | > 100 µM | – | > 100 µM | > 100 | > 100 µM | – | – | – | – | –
30 | COc1ccc(C2=NNC(=O)OC2c2ccccc2)cc1 (stereo not drawn) | > 100 µM | – | > 100 µM | > 100 | – | > 100 | > 100 µM | – | > 100 | –
31 | Cn1c2c(c3ccccc31)C1CCCCC1C1C(=O)NC(=O)C21 (stereo not drawn) | > 100 µM | – | > 100 µM | > 100 | > 100 µM | > 100 | – | – | > 100 | –
32 | Cc1cc2c(=O)n(-c3ccc(F)cc3)c(C)nc2c(C(=O)O)c1C | > 100 µM | – | > 100 µM | > 100 | > 100 µM | – | > 100 µM | > 100 | – | –
33 | O=C(CC1(O)C(=O)Nc2ccccc21)c1ccccc1Cl (stereo not drawn) | > 100 µM | – | > 100 µM | > 100 | > 100 µM | > 100 | > 100 µM | > 100 | – | –
34 | Cc1ccc(NC(=O)c2cccc([N+](=O)[O-])c2O)c([N+](=O)[O-])c1 | 27.6 µM | – | 25.7 µM | 27.9 | 39.9 µM | 36.2 | 70.4 µM | 26.2 | 26.9 | –
35 | Cc1ccc(NC(=O)NC(=O)c2ccc([N+](=O)[O-])cc2[N+](=O)[O-])cc1Oc1ncc(Cl)cn1 | 21.7 µM | – | 10.1 µM | 11.1 | 12.5 µM | 16.9 | 0.515 µM | 1.08 | – | –
36 | CC(C)c1ccccc1NC(=O)C(=O)Cc1nc2ccccc2s1 | > 100 µM | – | > 100 µM | > 100 | – | – | > 100 µM | > 100 | > 100 | –
37 | COc1ccc(/C=C2\CCCCC2=O)cc1 | > 100 µM | – | > 100 µM | > 100 | > 100 µM | > 100 | > 100 µM | > 100 | – | –
38 | C[C@]12CCC[C@H](Cl)C1(O)C[C@H](C(=O)O)CC2 (stereo partly drawn) | > 100 µM | – | > 100 µM | > 100 | > 100 µM | > 100 | > 100 µM | > 100 | – | –
39 | CN(C)c1ccc(/C=C(/NC(=O)c2ccccc2)c2nc3ccc(Cl)cc3[nH]2)cc1 | 69.6 µM | – | – | 97.4 | > 100 µM | – | 84.8 µM | > 100 | – | –
40 | CC(C)C1OC(=O)C=C1Sc1ccccc1 (stereo not drawn) | – | > 100 µM | – | – | – | – | – | – | – | –
41 | CN1C2(c3ccccc3)c3c(-c4ccccc4)sc(-c4ccccc4)c3C1(c1ccccc1)C1C(=O)N(c3ccccc3)C(=O)C12 (stereo not drawn) | > 100 µM | – | > 100 µM | > 100 | > 100 µM | > 100 | > 100 µM | > 100 | > 100 | –
42 | COc1cc2c(cc1OC)-c1cc3cc(OC)c(OC)cc3n1CC2 | > 100 µM | – | > 100 µM | > 100 | > 100 µM | 59.7 | > 100 µM | – | – | –
43 | COc1ccc(/C(Cl)=C(\C=O)c2ccc([N+](=O)[O-])cc2)cc1OC | 24.3 µM | 14.5 µM | 22.3 µM | 13.7 | – | 9.59 | 25.5 µM | 32 | 26.9 | –
44 | Cc1ccc(-c2nc(SCC(=O)O)n[nH]2)cc1 | > 100 µM | – | > 100 µM | > 100 | > 100 µM | > 100 | > 100 µM | > 100 | – | –
45 | CN(C)c1ccc(N=Cc2c([O-])ccc3ccccc23)cc1.[C-]#[O+].[C-]#[O+].[Ir] | 30.9 µM | – | 22.8 µM | 25.9 | 37.6 µM | 48.4 | 33.4 µM | – | – | GI50 (M19-MEL melanoma): 16.2 µM; GI50 (DMS 114 small cell lung): 10.5 µM; GI50 (LXFL 529 NSCLC): 12.5 µM; GI50 (DLD-1 colon): 17.4 µM; GI50 (XF 498 CNS): 20.5 µM; GI50 (KM20L2 colon): 18.7 µM
